Assay results taken from patent US20100035984A1, “Use of an antibacterial compound which is derived from alliaceae, as a natural additive in animal feed” (DMC Research Center, S.L., priority 2006, published 2010).
“And” between values parts separate entries of the source, which are not always exact repeats. Equal values may be shown once. Marks after values point to notes of the source that are not given here.

How the values were obtained:
Format in all cases: cell-based
[1] = test system: total anaerobes, total aerobes, enterobacteria, coliform bacteria, bacteroides, clostridia, lactobacilli and bifidobacteria; assay: In vitro fermentation of pig feces inoculum, counts of all bacterial groups (Example 1); conditions: 50 to 2000 mg/L in culture medium, 24 hours in vitro fermentation, inocula from piglet feces
Experimental: FIG. 1 is a graph relating to Example 1 (study of the porcine digestive microbial composition) showing the effect of different concentrations of the compound PTSO after 24 hours of in vitro fermentation on the total anaerobic bacteria, total aerobic bacteria, enterobacteria, coliform bacteria, bacteroides, clostridia, lactobacilli and bifidobacteria count present in pig feces. The vertical axis of the graph determines the log 10(cfu/g feces) and the horizontal axis determines the bacterial group.
The described assays are carried out using complete bacterial inocula obtained from feces of piglets in post-weaning stage.

[2] = test system: microbiota of the ruminal inoculum (ruminal fluid of goats); assay: In vitro ruminal degradation of experimental diets (Example 3); conditions: for DDM (degradability of dry matter), mean / DOM (degradability of organic matter), mean: 48 hours
Experimental: The Effect of Different Doses of the Compounds Object of Study on the Ruminal Degradation of Two Different Diets the Composition of which is in Table 1 is Studied The diets consist of alfalfa hay (standard maintenance diet for ruminant animals) or of a mixture of 50% alfalfa hay and a commercial concentrate (standard lactation diet for ruminant animals). In vitro incubation is performed using ruminal fluid of goats as inoculum.

[3] = test system: lactobacilli; assay: In vitro fermentation of pig feces, lactobacilli count (Example 2); conditions: 200 mg/L, 24 hours
Experimental: (§1) The mean values affected by different indexes indicate significant differences (p<0.05). The vertical axis of the graph determines the log 10(cfu/g feces) and the horizontal axis determines the compound. The described assays are carried out using complete bacterial inocula obtained from feces of piglets in post-weaning stage. Two of the compounds (referenced as PTS and as PTSO) are assayed in a lower dose range (50-400 mg/L).

[4] = test system: ruminal fermentation (methane-producing microorganisms); assay: Production of gas by in vitro fermentation of the diets (Example 4); conditions: for inhibitory effect on production of fermentation gas, dependence on time: 24 and 48 hours; for doses at which the inhibitory effect on production of fermentation gas is observed: diet D2
Experimental: The effect of different doses of the compounds object of study on the production of gas promoted by in vitro fermentation for 24 and 48 hours of the diets the composition of which is included in Table 1 is studied.

[5] = test system: bifidobacteria; assay: In vitro fermentation of pig feces, bifidobacteria count (Example 2); conditions: 200 mg/L, 24 hours
Experimental: as §1

[6] = Alfalfa hay + concentrate, 10 ppm
[7] = Alfalfa hay + concentrate, 25 ppm
[8] = Alfalfa hay + concentrate, 50 ppm
[9] = Alfalfa hay + concentrate, 300 ppm
[10] = Alfalfa hay + concentrate, 750 ppm
[11] = Alfalfa hay + concentrate, 1000 ppm
[12] = Alfalfa hay + concentrate, 2000 ppm
[13] = Table 4: diet D1, 48 hours, concentration 2000, replicates
[14] = diet D1, 48 hours, 10 ppm, replicates
[15] = diet D1, 48 hours, 25 ppm, replicates
[16] = diet D1, 48 hours, concentration 50, replicates
[17] = diet D1, 48 hours, concentration 300, replicates
[18] = diet D1, 48 hours, concentration 750, replicates
[19] = diet D1, 48 hours, concentration 1000, replicates
[20] = diet D1, 48 hours, concentration 2000, replicates
[21] = diet D2, 48 hours, 10 ppm, replicates
[22] = diet D2, 48 hours, 25 ppm, replicates
[23] = diet D2, 48 hours, concentration 50, replicates
[24] = diet D2, 48 hours, concentration 300, replicates
[25] = diet D2, 48 hours, concentration 750, replicates
[26] = diet D2, 48 hours, concentration 1000, replicates
[27] = diet D2, 48 hours, concentration 2000, replicates
[28] = diet D1, 50 to 750 ppm, 24 hours in vitro incubation
[29] = diet D1, 24 hours, 50 ppm, replicates
[30] = diet D1, 24 hours, 750 ppm, replicates

propyl propylthiosulfonate [PTSO]
growth of the bacterial groups studied [1]: inhibited the growth of all the bacterial groups studied | DDM (degradability of dry matter), mean [2, 6]: 63.4^a | DOM (degradability of organic matter), mean [2, 6]: 63.8^a | DDM (degradability of dry matter), mean [2, 7]: 62.5^a | DOM (degradability of organic matter), mean [2, 7]: 60.6^a | DDM (degradability of dry matter), mean [2, 8]: 61.1^a | DOM (degradability of organic matter), mean [2, 8]: 63.5^a | DDM (degradability of dry matter), mean [2, 9]: 45.2^b | DOM (degradability of organic matter), mean [2, 9]: 44.7^b | DDM (degradability of dry matter), mean [2, 10]: 38.1^c | DOM (degradability of organic matter), mean [2, 10]: 37.4^c | DDM (degradability of dry matter), mean [2, 11]: 37.2^c | DOM (degradability of organic matter), mean [2, 11]: 36.0^c | DDM (degradability of dry matter), mean [2, 12]: 36.7^c | DOM (degradability of organic matter), mean [2, 12]: 32.3^c | DDM (degradability of dry matter), mean ([2]; Alfalfa hay, 10 ppm): 55.5^a | DOM (degradability of organic matter), mean ([2]; Alfalfa hay, 10 ppm): 48.4^ab | DDM (degradability of dry matter), mean ([2]; Alfalfa hay, 25 ppm): 54.5^a | DOM (degradability of organic matter), mean ([2]; Alfalfa hay, 25 ppm): 53.2^ab | DDM (degradability of dry matter), mean ([2]; Alfalfa hay, 50 ppm): 45.6^b | DOM (degradability of organic matter), mean ([2]; Alfalfa hay, 50 ppm): 45.9^b | DDM (degradability of dry matter), mean ([2]; Alfalfa hay, 300 ppm): 36.2^c | DOM (degradability of organic matter), mean ([2]; Alfalfa hay, 300 ppm): 35.5^c | DDM (degradability of dry matter), mean ([2]; Alfalfa hay, 750 ppm): 30.4^d | DOM (degradability of organic matter), mean ([2]; Alfalfa hay, 750 ppm): 29.9^c | DDM (degradability of dry matter), mean ([2]; Alfalfa hay, 1000 ppm): 34.5^c | DOM (degradability of organic matter), mean ([2]; Alfalfa hay, 1000 ppm): 33.7^c | DDM (degradability of dry matter), mean ([2]; Alfalfa hay, 2000 ppm): 30.3^d | DOM (degradability of organic matter), mean ([2]; Alfalfa hay, 2000 ppm): 29.0^c | Mean DDM ([2]; Table 3: diet D1, 48 hours, 2000 ppm): 31.6% | DDM (degradation of dry matter) ([2]; Table 3: diet D1, 48 hours, 2000 ppm, replicates): 30.9% and 30.2% and 32.0% and 31.4% and 32.2% and 32.7% | DDM [2, 13]: 31.9% and 28.7% | effect on degradation of dry matter and organic matter ([2]; diet D1, 2000 ppm, 48 hours in vitro incubation): higher reduction | DDM [2, 14]: 54.9% and 56.1% | DOM [2, 14]: 45.0% and 51.8% | DDM [2, 15]: 54.1% and 55.0% | DOM [2, 15]: 52.9% and 53.6% | DDM [2, 16]: 45.5% and 45.7% | DOM [2, 16]: 46.0% and 45.7% | DDM [2, 17]: 36.6% and 35.8% | DOM [2, 17]: 36.2% and 34.9% | DDM [2, 18]: 31.0% and 29.9% | DOM [2, 18]: 30.2% and 29.6% | DDM [2, 19]: 33.4% and 35.6% | DOM [2, 19]: 32.6% and 34.7% | DOM [2, 20]: 30.6% and 27.5% | DDM [2, 21]: 63.1% and 63.7% | DOM [2, 21]: 63.2% and 64.3% | DDM [2, 22]: 62.4% and 62.7% | DOM [2, 22]: 58.4% and 62.8% | DDM [2, 23]: 61.1% and 63.9% | DOM [2, 23]: 62.2% and 64.8% | DDM [2, 24]: 44.4% and 46.0% | DOM [2, 24]: 43.7% and 45.6% | DDM [2, 25]: 39.9% and 36.3% | DOM [2, 25]: 39.0% and 35.8% | DDM [2, 26]: 35.9% and 38.4% | DOM [2, 26]: 34.8% and 37.3% | DDM [2, 27]: 37.1% and 36.3% | DOM [2, 27]: 32.7% and 32.0% | lactobacilli logarithmic reduction in the population [3]: approximately 50% | inhibitory effect on production of fermentation gas, dependence on dose [4]: dose-dependent | inhibitory effect on production of fermentation gas, dependence on time [4]: time-dependent | doses at which the inhibitory effect on production of fermentation gas is observed [4]: 10 ppm | bifidobacteria logarithmic reduction in the population [5]: approximately 50%

propyl propylthiosulfinate [PTS]
DDM (degradability of dry matter), mean [2, 6]: 63.9^ab | DOM (degradability of organic matter), mean [2, 6]: 63.9^ab | DDM (degradability of dry matter), mean [2, 7]: 59.4^b | DOM (degradability of organic matter), mean [2, 7]: 59.7^b | DDM (degradability of dry matter), mean [2, 8]: 59.8^b | DOM (degradability of organic matter), mean [2, 8]: 59.8^b | DDM (degradability of dry matter), mean [2, 9]: 48.3^c | DOM (degradability of organic matter), mean [2, 9]: 47.8^c | DDM (degradability of dry matter), mean [2, 10]: 43.5^c | DOM (degradability of organic matter), mean [2, 10]: 45.5^c | DDM (degradability of dry matter), mean [2, 11]: 45.6^c | DOM (degradability of organic matter), mean [2, 11]: 45.1^c | DDM (degradability of dry matter), mean [2, 12]: 45.3^c | DOM (degradability of organic matter), mean [2, 12]: 38.7^d | DDM (degradability of dry matter), mean ([2]; Alfalfa hay, 10 ppm): 54.2^a | DOM (degradability of organic matter), mean ([2]; Alfalfa hay, 10 ppm): 54.5^a | DDM (degradability of dry matter), mean ([2]; Alfalfa hay, 25 ppm): 52.3^a | DOM (degradability of organic matter), mean ([2]; Alfalfa hay, 25 ppm): 42.9^bc | DDM (degradability of dry matter), mean ([2]; Alfalfa hay, 50 ppm): 46.6^b | DOM (degradability of organic matter), mean ([2]; Alfalfa hay, 50 ppm): 46.7^b | DDM (degradability of dry matter), mean ([2]; Alfalfa hay, 300 ppm): 40.6^c | DOM (degradability of organic matter), mean ([2]; Alfalfa hay, 300 ppm): 41.0^c | DDM (degradability of dry matter), mean ([2]; Alfalfa hay, 750 ppm): 39.6^c | DOM (degradability of organic matter), mean ([2]; Alfalfa hay, 750 ppm): 39.2^c | DDM (degradability of dry matter), mean ([2]; Alfalfa hay, 1000 ppm): 39.1^c | DOM (degradability of organic matter), mean ([2]; Alfalfa hay, 1000 ppm): 38.8^c | DDM (degradability of dry matter), mean ([2]; Alfalfa hay, 2000 ppm): 39.6^c | DOM (degradability of organic matter), mean ([2]; Alfalfa hay, 2000 ppm): 40.0^c | DDM [2, 13]: 40.2% and 38.9% | effect on degradation of dry matter [2, 28]: reduction of the degradation of dry matter | effect on degradation of organic matter [2, 28]: do not affect | Mean DDM ([2]; diet D1, 24 hours, 50 ppm): 37.1% | Mean DOM ([2]; diet D1, 24 hours, 50 ppm): 38.5% | DDM (degradation of dry matter) [2, 29]: 37.7% (2×) and 37.9% and 34.1% and 35.6% and 39.3% | DOM (degradation of organic matter) [2, 29]: 38.0% and 38.9% | Mean DDM ([2]; diet D1, 24 hours, 300 ppm): 37.4% | DDM (degradation of dry matter) ([2]; diet D1, 24 hours, 300 ppm, replicates): 38.5% and 40.4% and 37.6% and 36.0% and 35.7% and 36.2% | Mean DDM ([2]; diet D1, 24 hours, 750 ppm): 39.5% | Mean DOM ([2]; diet D1, 24 hours, 750 ppm): 38.1% | DDM (degradation of dry matter) [2, 30]: 40.8% and 37.7% and 43.2% and 39.5% and 37.9% and 38.0% | DOM (degradation of organic matter) [2, 30]: 39.4% and 36.8% | DDM [2, 14]: 54.5% and 53.9% | DOM [2, 14]: 54.8% and 54.2% | DDM [2, 15]: 52.0% and 52.5% | DOM [2, 15]: 43.0% and 42.9% | DDM [2, 16]: 46.2% and 46.9% | DOM [2, 16]: 47.5% and 45.9% | DDM [2, 17]: 41.8% and 39.4% | DOM [2, 17]: 42.5% and 39.5% | DDM [2, 18]: 39.6% and 39.7% | DOM [2, 18]: 38.6% and 39.7% | DDM [2, 19]: 39.1% | DOM [2, 19]: 38.6% and 38.9% | DOM [2, 20]: 40.3% and 39.7% | DDM [2, 21]: 64.0% and 63.9% | DOM [2, 21]: 63.8% and 64.0% | DDM [2, 22]: 57.4% and 61.4% | DOM [2, 22]: 57.6% and 61.8% | DDM [2, 23]: 60.9% and 58.7% | DOM [2, 23]: 60.9% and 58.8% | DDM [2, 24]: 49.3% and 47.2% | DOM [2, 24]: 48.6% and 47.1% | DDM [2, 25]: 44.8% and 42.2% | DOM [2, 25]: 46.5% and 44.6% | DDM [2, 26]: 46.1% and 45.1% | DOM [2, 26]: 45.6% and 44.7% | DDM [2, 27]: 45.7% and 44.9% | DOM [2, 27]: 38.9% and 38.5% | lactobacilli logarithmic reduction in the population [3]: approximately 50% | inhibitory effect on production of fermentation gas, dependence on dose [4]: dose-dependent | inhibitory effect on production of fermentation gas, dependence on time [4]: time-dependent | doses at which the inhibitory effect on production of fermentation gas is observed [4]: 10 ppm | bifidobacteria logarithmic reduction in the population [5]: approximately 50%
